31 compounds from ChEMBL document CHEMBL4402530, “New dimensions in the field of antimalarial research against malaria resurgence” (Eur J Med Chem, 2019) can be followed below.

Data set [1] concerns Plasmodium falciparum. The data set is described as follows: Antiparasitic activity against Plasmodium falciparum infected in human PBMC. The format is functional, organism-based.
The subject of data set [2] is Plasmodium falciparum. As to the kind of experiment: Antiparasitic activity against Plasmodium falciparum infected in mouse. The format is functional.
Data set [3] relates to Plasmodium falciparum. As to the kind of experiment: Antiparasitic activity against Plasmodium falciparum infected in SCID mouse. The format is functional.
For data set [4], the system named is Plasmodium falciparum. The data set is described as follows: Antiparasitic activity against Plasmodium falciparum D6. The format is functional, organism-based.
Data set [5] deals with Plasmodium falciparum. As to the kind of experiment: Antiparasitic activity against Plasmodium falciparum. The format is functional, organism-based.
Data set [6] concerns Plasmodium falciparum. As to the kind of experiment: Antiparasitic activity against Plasmodium falciparum 3D7. The format is functional, organism-based.
Data set [7] can be described thus: Selectivity index, ratio of IC50 for African green Monkey BGM cells to IC50 for chloroquine-resistant Plasmodium falciparum W2. The settings on record: read-out: Selectivity Index. The format is toxicity.
The subject of data set [8] is Plasmodium falciparum. The data set is described as follows: Antiparasitic activity against Plasmodium falciparum TM91C235. The format is functional, organism-based.
The test system of data set [9] is Plasmodium falciparum. The data set is described as follows: Antiparasitic activity against Plasmodium falciparum […]. The format is functional, organism-based.
Data set [10] relates to Plasmodium falciparum. The data set is described as follows: Antiparasitic activity against chloroquine-resistant Plasmodium falciparum Dd2. The format is functional, organism-based.
Data set [11] deals with Plasmodium falciparum. As to the kind of experiment: Antiparasitic activity against Plasmodium falciparum Tm90. The format is functional, organism-based.
The subject of data set [12] is Plasmodium falciparum. The data set is described as follows: Antiparasitic activity against Plasmodium falciparum Dd2. The format is functional, organism-based.
Data set [13] has as its system Plasmodium falciparum. As to the kind of experiment: Antiparasitic activity against Plasmodium falciparum C2B. The format is functional, organism-based.
Data set [14] has as its system Plasmodium falciparum. The data set is described as follows: Antiparasitic activity against Plasmodium falciparum W2. The format is functional, organism-based.
Data set [15] relates to Plasmodium berghei. As to the kind of experiment: Antiparasitic activity against Plasmodium berghei ANKA infected in mouse assessed as mouse survival. The format is functional.
Data set [16] concerns Plasmodium falciparum. The data set is described as follows: Antiparasitic activity against Plasmodium falciparum D10. The format is functional, organism-based.
The subject of data set [17] is Plasmodium falciparum. The data set is described as follows: Antiparasitic activity against Plasmodium falciparum K1. The format is functional, organism-based.
Data set [18] deals with Plasmodium berghei. As to the kind of experiment: Antiparasitic activity against Plasmodium berghei ANKA infected in CD1 mouse assessed as reduction in parasitemia. The format is functional.
Data set [19] deals with Plasmodium falciparum. As to the kind of experiment: Antiparasitic activity against Plasmodium falciparum infected in human HepG2 cells. The format is functional, organism-based.

On to `COc1cc2[nH]c(C)c(-c3ccc(Oc4ccc(OC(F)(F)F)cc4)cc3)c(=O)c2cc1Cl`, for which the EC50 (usually the concentration needed to bring the measured effect to its halfway point) in the data set with Plasmodium falciparum [1] is 1.3 to 13.6 nM; with Plasmodium falciparum [4] it was 1.3 to 13.6 nM; with Plasmodium falciparum [5], 0.58 nM; with Plasmodium falciparum [6] (Plasmodium falciparum, 3D7), 1.3 to 13.6 nM. Moreover, the values for the ED50 in the data set with Plasmodium falciparum [2] and in the data set on Plasmodium falciparum [3] were 0.016 mg/kg and 6 mg/kg, respectively.
Regarding `O=Cc1cn(-c2ccnc3cc(Cl)ccc23)nn1`, the selectivity ratio in data set [7] is 351.
Turning to `CC(=O)O[C@H]1C[C@H]2[C@@H]([C@H](OC(C)=O)C[C@@H]3C[C@H](N(C)C)CC[C@@]32C)[C@@H]2CC[C@H]([C@H](C)CCCN(C)CCNc3ccnc4cc(Cl)ccc34)[C@@]12C`, the IC50 (as a rule, the concentration that gives 50% inhibition) with Plasmodium falciparum [4] worked out at 2.63 nM; in the data set with Plasmodium falciparum [8], 3.32 nM; in the data set on Plasmodium falciparum [9], 2270 nM.
For the compound `NS(=O)(=O)c1cccc(-n2cc(CCNc3ccnc4cc(Cl)ccc34)nn2)c1`, the 50% inhibitory concentration (IC50) with Plasmodium falciparum [10] was 600 nM; with Plasmodium falciparum [6] (Plasmodium falciparum, 3D7), 600 nM.
Consider `CCCCCCCc1c(C)nc2cc(F)cc(F)c2c1OC(=O)OCCOCCOCCOCCOC`, for which the half-inhibitory concentration (IC50) with Plasmodium falciparum [4] was 0.05 nM; in the data set on Plasmodium falciparum [11] it was 81 nM; in the data set on Plasmodium falciparum [12] it was 0.4 nM; in the data set on Plasmodium falciparum [13] it was 146 nM.
As to `COc1cc2[nH]c(C)c(-c3ccc(Oc4ccc(OC(F)(F)F)cc4)cc3F)c(=O)c2cc1Cl`, the EC50 in the data set on Plasmodium falciparum [1] was 3.18 to 32.3 nM; in the data set with Plasmodium falciparum [4], 3.18 to 32.3 nM; in the data set on Plasmodium falciparum [5] it was 1.06 nM; with Plasmodium falciparum [6] (Plasmodium falciparum, 3D7) it was 3.18 to 32.3 nM. Further, the median effective dose (ED50) – broadly, the dose at which the effect has come halfway, by size or by number of responders – in the data set on Plasmodium falciparum [2] was determined as 0.3 mg/kg.
As to `NS(=O)(=O)c1ccc(-n2cc(CNc3ccnc4cc(Cl)ccc34)nn2)cc1`, the IC50 in the data set with Plasmodium falciparum [10] was 600 nM; in the data set on Plasmodium falciparum [6] (Plasmodium falciparum, 3D7), 600 nM.
In the case of `CC(=O)O[C@H]1C[C@H]2[C@@H]([C@H](OC(C)=O)C[C@@H]3C[C@H](NC(=O)OC(C)(C)C)CC[C@@]32C)[C@@H]2CC[C@H]([C@H](C)CCCN(C)CCNc3ccnc4cc(Cl)ccc34)[C@@]12C`, in the data set on Plasmodium falciparum [14] (Plasmodium falciparum, W2), the half-inhibitory concentration (IC50) was 2.63 to 13.8 nM.
On to `OC(CN1CCC2(CC1)CC(O)c1ccc3ccccc3c1O2)c1ccc(F)c(F)c1` (stereo not drawn), for which the Survival in the data set with Plasmodium berghei [15] is over 1.7 days. For the same compound, the midpoint of the response in the data set on Plasmodium falciparum [10], the EC50, lay at 350 nM.
For the compound `CC(=O)O[C@H]1C[C@H]2[C@@H]([C@H](OC(C)=O)C[C@@H]3C[C@H](O)CC[C@@]32C)[C@@H]2CC[C@H]([C@H](C)CCCNCCNc3ccnc4cc(Cl)ccc34)[C@@]12C`, the IC50 lay within 2.63 to 13.8 nM with Plasmodium falciparum [14] (Plasmodium falciparum, W2) and 1.35 to 14.1 nM with Plasmodium falciparum [4].
In the case of `NS(=O)(=O)c1cccc(-n2cc(CCCNc3ccnc4cc(Cl)ccc34)nn2)c1`, the IC50 in the data set on Plasmodium falciparum [10] was found to be 600 nM; in the data set with Plasmodium falciparum [6] (Plasmodium falciparum, 3D7), 600 nM.
As to `CC(CCNc1ccnc2cc(Cl)ccc12)NCCO[C@H]1O[C@@H]2O[C@@]3(C)CC[C@H]4[C@H](C)CC[C@@H]([C@H]1C)[C@@]24OO3` (stereo partly drawn), the half-maximal inhibitory concentration (IC50) with Plasmodium falciparum [16] is 17.1 nM; with Plasmodium falciparum [12] it was 12.2 nM.
`CC(=O)O[C@H]1C[C@H]2[C@@H]([C@H](OC(C)=O)C[C@@H]3C[C@H](NS(C)(=O)=O)CC[C@@]32C)[C@@H]2CC[C@H]([C@H](C)CCCN(C)CCNc3ccnc4cc(Cl)ccc34)[C@@]12C`: the half-maximal inhibitory concentration (IC50) in the data set with Plasmodium falciparum [14] (Plasmodium falciparum, W2) was in the range of 2.63 to 13.8 nM; in the data set with Plasmodium falciparum [4], 1.35 to 14.1 nM.
Take `Cc1[nH]c2cc(F)cc(F)c2c(=O)c1CCCCCCCl`: the IC50 with Plasmodium falciparum [4] was 0.05 nM; with Plasmodium falciparum [11], 81 nM; in the data set with Plasmodium falciparum [12] it was 0.4 nM; in the data set with Plasmodium falciparum [13], 146 nM.
Regarding `CC(=O)O[C@@H]1CC[C@@]2(C)[C@@H](C1)C[C@@H](OC(C)=O)[C@@H]1[C@@H]2C[C@H](OC(C)=O)[C@]2(C)[C@@H]([C@H](C)CCCN(C)CCCNc3ccnc4cc(Cl)ccc34)CC[C@@H]12`, in the data set with Plasmodium falciparum [14] (Plasmodium falciparum, W2), the half-inhibitory concentration (IC50) lay within 2.63 to 13.8 nM.
Turning to `NS(=O)(=O)c1cccc(-n2cc(CNc3ccnc4cc(Cl)ccc34)nn2)c1`, the IC50 in the data set on Plasmodium falciparum [10] is 600 nM; in the data set on Plasmodium falciparum [6] (Plasmodium falciparum, 3D7), 600 nM.
As to `COc1cc(NC(C)CCCNCc2ccc(CO[C@H]3O[C@@H]4O[C@@]5(C)CC[C@H]6[C@H](C)CC[C@@H]([C@H]3C)[C@@]46OO5)cc2)c2ncccc2c1` (stereo partly drawn), the IC50 with Plasmodium falciparum [14] (Plasmodium falciparum, W2) was 112 nM.
`CC(C)c1cc2c(cc1O)[C@@]1(C)CCCC(C)(C)[C@@H]1CC2` [FERRUGINOL]: the half-inhibitory concentration (IC50) was in the range of 0.9 to 4.2 µg/mL in the data set with Plasmodium falciparum [16]; 0.9 to 4.2 µg/mL in the data set on Plasmodium falciparum [14] (Plasmodium falciparum, W2); 0.9 to 4.2 µg/mL in the data set on Plasmodium falciparum [4]; 0.9 to 4.2 µg/mL in the data set with Plasmodium falciparum [17].
`CC(=O)O[C@H]1C[C@H]2[C@@H]([C@H](OC(C)=O)C[C@@H]3CC(=O)CC[C@@]32C)[C@@H]2CC[C@H]([C@H](C)CCCNCCNc3ccnc4cc(Cl)ccc34)[C@@]12C`: the 50% inhibitory concentration (IC50) fell in the range of 2.63 to 13.8 nM in the data set on Plasmodium falciparum [14] (Plasmodium falciparum, W2) and 1.35 to 14.1 nM with Plasmodium falciparum [4].
As to `O=C(N/N=C/c1ccc(Br)cc1)C(=O)Nc1ccc(Nc2ccnc3cc(Cl)ccc23)cc1`, the 50% inhibitory concentration (IC50) worked out at 19.7 nM with Plasmodium falciparum [6] (Plasmodium falciparum, 3D7) and 52 nM with Plasmodium falciparum [17].
For `NS(=O)(=O)c1ccc(-n2cc(CCNc3ccnc4cc(Cl)ccc34)nn2)cc1`, the IC50 came out at 600 nM in the data set on Plasmodium falciparum [10] and 600 nM with Plasmodium falciparum [6] (Plasmodium falciparum, 3D7).
For `CC(C)=CC(=O)O[C@@H]1C[C@@]2(C)[C@@H](C=C1C)O[C@@H]1[C@H](O)[C@@H](O)[C@@]2(C)[C@]12CO2`, the values for the 50% inhibitory concentration (IC50) with Plasmodium falciparum [14] and in the data set with Plasmodium falciparum [6] were 370 nM and 29 nM, respectively.
On to `CC(=O)O[C@H]1C[C@H]2[C@@H]([C@H](OC(C)=O)C[C@@H]3C[C@H](NC(=O)OC(C)(C)C)CC[C@@]32C)[C@@H]2CC[C@H]([C@H](C)CCCNCCNc3ccnc4cc(Cl)ccc34)[C@@]12C`, for which, in the data set with Plasmodium falciparum [4], the IC50 fell in the range of 1.35 to 14.1 nM.
In the data set with Plasmodium falciparum [2], `C[C@H]1Cc2c([nH]c3cc(Cl)c(F)cc23)[C@@]2(N1)C(=O)Nc1ccc(Cl)cc12` [CIPARGAMIN] returned an ED50 of 1 mg/kg, an ED90 of 3 mg/kg and an ED99 of 5 mg/kg.
For the compound `CC(C)(C)NCc1cc(Nc2ccnc3cc(Cl)ccc23)ccc1F`, in the data set with Plasmodium berghei [18], the median effective dose (ED50) is 5.3 mg/kg.
For `CC(=O)O[C@H]1C[C@H]2[C@@H]([C@H](OC(C)=O)C[C@@H]3CC(=O)CC[C@@]32C)[C@@H]2CC[C@H]([C@H](C)CCCNCCCNc3ccnc4cc(Cl)ccc34)[C@@]12C`, the 50% inhibitory concentration (IC50) fell in the range of 2.63 to 13.8 nM in the data set on Plasmodium falciparum [14] (Plasmodium falciparum, W2) and 1.35 to 14.1 nM in the data set on Plasmodium falciparum [4].
`O[C@@H](c1cc(C(F)(F)F)nc2c(C(F)(F)F)cccc12)[C@H]1CCCCN1` [(S,R)-MEFLOQUINE] had an IC50 with Plasmodium falciparum [4] of 15.2 nM.
Consider `CC(=O)O[C@H]1C[C@H]2[C@@H]([C@H](OC(C)=O)C[C@@H]3C[C@H](N)CC[C@@]32C)[C@@H]2CC[C@H]([C@H](C)CCCN(C)CCNc3ccnc4cc(Cl)ccc34)[C@@]12C`, for which the half-inhibitory concentration (IC50) in the data set with Plasmodium falciparum [1] was over 1000 nM; in the data set on Plasmodium falciparum [14] (Plasmodium falciparum, W2), 3.74 nM; with Plasmodium falciparum [4], 4.46 nM; with Plasmodium falciparum [8], 9.2 nM; in the data set on Plasmodium falciparum [19] it was over 1000 nM; in the data set with Plasmodium falciparum [9], 1140 nM.
In the case of `CC(=O)O[C@@H]1CC[C@@]2(C)[C@@H](C1)C[C@@H](OC(C)=O)[C@@H]1[C@@H]2C[C@H](OC(C)=O)[C@]2(C)[C@@H]([C@H](C)CCCNCCCNc3ccnc4cc(Cl)ccc34)CC[C@@H]12`, the IC50 with Plasmodium falciparum [14] (Plasmodium falciparum, W2) is 2.63 to 13.8 nM.
As to `NS(=O)(=O)c1ccc(-n2cc(CCCNc3ccnc4cc(Cl)ccc34)nn2)cc1`, the IC50 in the data set with Plasmodium falciparum [10] was 600 nM; in the data set with Plasmodium falciparum [6] (Plasmodium falciparum, 3D7), 600 nM.
Consider `CC(C)(C)c1ccc(/C=N/NC(=O)C(=O)Nc2ccc(Nc3ccnc4cc(Cl)ccc34)cc2)cc1`, for which the IC50 in the data set with Plasmodium falciparum [6] (Plasmodium falciparum, 3D7) was 19.7 nM; in the data set on Plasmodium falciparum [17] it was 52 nM.
